Assay results as given in patent US8299083B2, “PDE5 inhibitor compositions and methods for treating cardiac indications” (The Johns Hopkins University, priority 2004, dated 2012).
Read-outs that look alike come from different tables or passages of the source.

Experiments:
myocardial cGMP = experiment: Myocardial cyclic nucleotide levels; type: in vivo, mouse
From the text: Hearts were washed in ice-cold PBS, homogenized in 6% trichloroacetic acid, centrifuged and extracted with water-saturated ether. The aqueous layer was transferred, vacuum dried, and the pellet resuspended in sodium acetate buffer for cAMP and cGMP enzyme immunoassay (Amersham Pharmacia Biotech, Buckinghamshire, UK).

cGMP = cGMP FRET imaging in neonatal rat myocytes; type: cell-based
Description: Ventricular myocytes from 1-2 days old Sprague Dawley rats (CharlesRiver Lab, MA) were prepared and transfected with the vector carrying the cGMP sensor cygnet-2.1^77 in which EYFP was substituted with the less pH sensitive variant citrine^89, and imaged eighteen-twenty-four hours after transfection as described^90. Images (50-80 ms exposure) were acquired every 10 seconds using custom software and processed by Imagej (NIH, MD). FRET was the change in 480 nm/545 nm emission intensities (ΔR) upon 430 nm excitation^91 expressed as percent change over the basal intensity (R0). Cells were bathed in HEPES buffered Ringer's modified saline (1 mmol/L CaCl2), at room temperature (20-22° C.).

Akt = Akt activation in TAC hearts (Western blot, activity assay); type: in vivo, mouse; conditions: 1 and 9 week TAC
Description: (§1) Protein was prepared from snap-frozen heart tissue using extraction buffer as described previously^90. Antibodies included calcineurin (1:2000 dilution, BD Transduction Laboratories (San Diego, Calif.), GSK3β, Ser9-phospho-GSK313, Akt, Ser473-phospho-Akt, ERK, Thr202/Thr204-phospho-ERK (1:1000 dilution, Cell Signaling Technology, Beverly, Mass.). Primary antibody binding was visualized by horse radish peroxidase-conjugated secondary antibodies and enhanced chemiluminescence (Pierce, Rockford, Ill.).
PI3Kα activity was assessed by Elisa assay following immunoprecipitation of PI3K (Seize X IP Kit, Pierce) using a p85α monoclonal antibody (Cell Signaling), with activity measured by fluorescence polarization (Molecular Devices, Perkin-Elmer Victor 3 plate reader). Akt activity (IP with s473-pAkt Ab, GSK-3 fusion protein substrate) was performed using a commercial kit (Cell Signaling Technology, Beverly, Mass.). PKG-1 activity was assayed by calorimetric analysis, CycLex (Clinisciences, Montrouge, FR) from whole heart lysates.

[1] = Plasma sildenafil levels in healthy volunteers; type: in vivo; conditions: human, po, 100 mg, 100 mg oral
From the text: Forty healthy volunteers were recruited from the general population in response to advertisements posted in the surrounding community. Subjects were screened by medical history, physical examination, and transthoracic echocardiogram. Individuals with heart disease, atherosclerosis, hypertension, diabetes mellitus, pulmonary hypertension, renal or hepatic disease, smoking, pregnancy, or under treatment with nitrates, adrenergic-blocking drugs, or medicines known to interfere with sildenafil pharmacokinetics were excluded. […] All subjects were instructed to fast for >6 hours prior to study. […] Intravenous dobutamine (5 μg/kg/min) was then administered for 5 minutes to achieve a stable response, and measurements repeated (D1). Dobutamine was discontinued, and 15 minutes provided to return to the baseline state. […] Data were again recorded for a second baseline (B2), and during a second dobutamine infusion (D2) using the identical protocol as for the first test. Plasma sildenafil and its metabolite […] measured in each subject by liquid chromatography and mass spectrometry (SFBC Analytical Labs, North Wales, Pa.).

[2] = tested on: C57BL/6 mice, pressure overload by transverse aortic constriction; experiment: Serial echocardiography in conscious mice with transverse aortic constriction (TAC); type: in vivo, mouse; conditions: for EF (ejection fraction) / HR (heart rate) / LV Dim (dia) / LV Dim (sys) / LV Mass (estimated, truncated ellipsoid model) / Wall Thickness: sildenafil treated
GSK3β = GSK3β phosphorylation in TAC hearts (Western blot); type: in vivo, mouse
Description: as §1

calcineurin = experiment: Calcineurin expression in TAC hearts (Western blot); type: in vivo, mouse; conditions: 1 and 9 weeks of TAC
Description: as §1

CCCc1nn(C)c2c(=O)[nH]c(-c3cc(S(=O)(=O)N4CCN(C)CC4)ccc3OCC)nc12 [sildenafil]
total myocardial cGMP (myocardial cGMP; TAC hearts, chronic co-treatment): declined
myocardial cAMP levels (myocardial cGMP; basal or TAC conditions): did not alter myocardial cAMP levels
total myocardial cGMP (myocardial cGMP; sham controls, chronic treatment): did not change
cGMP FRET signal (cGMP): enhanced the FRET signal
cGMP FRET signal (cGMP; listed as SIL): raised cellular cGMP
TAC-increased Akt activity (Akt): suppressed this response at both time points to near baseline
concentration at 75 min ([1]; subjects excluded from analysis, read-out: plasma concentration, mean of four subjects with very low levels): 3.6 nM
concentration at 75 min ([1]; subjects excluded from analysis, read-out: plasma concentrations, each of four subjects with very low levels): < 6 nM
concentration at 75 min ([1]; Free plasma sildenafil concentration, 75 minutes after dose): 44 ± 29 nM
serial echocardiography, established hypertrophy ([2]; 1-week TAC, then 2 weeks treatment): gradual decline in LV mass and wall thickness, with preservation of systolic ejection
EF (ejection fraction) ([2]; Control (sham)): 96.5 ± 0.2%
HR (heart rate) ([2]; Control (sham)): 634 ± 9 min⁻¹
LV Dim (dia) ([2]; Control (sham)): 2.87 ± 0.09 mm
LV Dim (sys) ([2]; Control (sham)): 0.89 ± 0.05 mm
LV Mass (estimated, truncated ellipsoid model) ([2]; Control (sham)): 59.1 ± 5.6 mg
Wall Thickness ([2]; Control (sham)): 0.71 ± 0.02 mm
EF (ejection fraction) ([2]; TAC-3 wks): 93.4 ± 1.1 %
HR (heart rate) ([2]; TAC-3 wks): 595 ± 7 min⁻¹
LV Dim (dia) ([2]; TAC-3 wks): 3.09 ± 0.06 mm
LV Dim (sys) ([2]; TAC-3 wks): 1.17 ± 0.08 mm
LV Mass (estimated, truncated ellipsoid model) ([2]; TAC-3 wks): 82.2 ± 5.0 mg
Wall Thickness ([2]; TAC-3 wks): 0.82 ± 0.02 mm
EF (ejection fraction) ([2]; TAC-6 wks): 74.9 ± 7.1 %
HR (heart rate) ([2]; TAC-6 wks): 617 ± 18 min⁻¹
LV Dim (dia) ([2]; TAC-6 wks): 3.67 ± 0.24 mm
LV Dim (sys) ([2]; TAC-6 wks): 2.24 ± 0.37 mm
LV Mass (estimated, truncated ellipsoid model) ([2]; TAC-6 wks): 115.6 ± 14.2 mg
Wall Thickness ([2]; TAC-6 wks): 0.86 ± 0.03 mm
EF (ejection fraction) ([2]; TAC-9 wks): 71.7 ± 9.9 %
HR (heart rate) ([2]; TAC-9 wks): 608 ± 25 min⁻¹
LV Dim (dia) ([2]; TAC-9 wks): 4.14 ± 0.36 mm
LV Dim (sys) ([2]; TAC-9 wks): 2.54 ± 0.57 mm
LV Mass (estimated, truncated ellipsoid model) ([2]; TAC-9 wks): 142.5 ± 21.5 mg
Wall Thickness ([2]; TAC-9 wks): 0.86 ± 0.03 mm
GSK3β activation (GSK3β; 1-week TAC): remained unchanged
Akt and GSK3β activation (GSK3β; 9-weeks TAC): reduced both
calcineurin protein expression (calcineurin): significantly reduced
